Data set [1] is described as follows: Duodenal fluid volume via MRI, control vs PPI condition. Format: in vivo, human. Particulars: for relative decrease in duodenal AUVC: first 180 min after Norvir tablet with 240 mL water, n = 5. The protocol:
All volunteers provided written informed consent before participating in the trial. Each trial day, the participant came to the radiology department at the University Hospitals Leuven after an overnight fast (at least 12 h). Water was allowed until the night before the trial except for the volume needed to swallow the PPI tablet. For the PPI condition, participants were pre-treated with a once-daily dose of Nexium (just before breakfast) starting two days prior to the trial day. On the morning of the trial, the final Nexium tablet was taken 2 h prior to the arrival time at the hospital, with as little water as possible to swallow the tablet. […] A venous catheter was placed in the subject’s arm and a blank blood sample (5 mL) was collected in heparinized tubes (BD Vacutainer systems, Plymouth, UK). […] A scouting sequence was used in the coronal and transversal plane to allow correct sequence positioning. At each time point, three standardized sequences were used to acquire images; sequence parameters are depicted in Table 1. Images were taken during exhalation breath hold. Images were analysed using Horos™ (Version 3.3.6, Horos project), a free open source medical images viewer. […] This made the sequence unsuitable for fluid determination as the duodenum passes these blood vessels which would interfere with the outlining of the fluid present in the duodenum. Sequence 2 was therefore used as a localizer for the duodenum (i.e., determining the location of the duodenojejunal flexure (Figure 1). As free water lights up in a T2 weighted image, a trained operator semi-automatically traced all the bright spots in each slice for the stomach and duodenum, according to a published procedure. […] This cut-off value must be regarded as a rule of thumb and manual correction was made to account for bright organs like the gall bladder and obvious acquisition errors (e.g., illogical dark spots in the middle of a fluid filled stomach).

Details of data set [2]: method as in PMID 32461076. Particulars: daily dose of 40 mg esomeprazole for three days; cited from earlier work.
Data set [3] can be described thus: Gastric fluid volume via MRI, control vs PPI condition. It is filed as in vivo, human. Particulars: for relative decrease in total gastric fluid volume (AUVC): first 180 min after Norvir tablet with 240 mL water, median, n = 5.
Method: Each trial day, the participant came to the radiology department at the University Hospitals Leuven after an overnight fast (at least 12 h). Water was allowed until the night before the trial except for the volume needed to swallow the PPI tablet. For the PPI condition, participants were pre-treated with a once-daily dose of Nexium (just before breakfast) starting two days prior to the trial day. On the morning of the trial, the final Nexium tablet was taken 2 h prior to the arrival time at the hospital, with as little water as possible to swallow the tablet. […] A venous catheter was placed in the subject’s arm and a blank blood sample (5 mL) was collected in heparinized tubes (BD Vacutainer systems, Plymouth, UK). […] In addition, subjects were placed in a Philips 1.5 T MRI System (Philips, Best, The Netherlands) to assess the gastric and duodenal fluid volume, once before administration of the study medication and afterwards at predetermined time points, i.e., 20, 40, 60, 90, 120, 150 and 180 min.
Upon entering the MRI system, a rectangular dStream FlexCoverage Anterior coil (Ingenia 1.5 tesla, Philips, Best, The Netherlands) was placed on the torso of the subjects. A scouting sequence was used in the coronal and transversal plane to allow correct sequence positioning. […] Images were taken during exhalation breath hold.
Images were analysed using Horos™ (Version 3.3.6, Horos project), a free open source medical images viewer. Gastric and duodenal fluid volumes reported in this study were acquired with sequence 1. […] This made the sequence unsuitable for fluid determination as the duodenum passes these blood vessels which would interfere with the outlining of the fluid present in the duodenum.
As free water lights up in a T2 weighted image, a trained operator semi-automatically traced all the bright spots in each slice for the stomach and duodenum, according to a published procedure [21]. To differentiate between free water and other contents in the respective organs, a cut-off value (lower threshold) of 30% of the brightest voxel in either the stomach or the duodenum was applied. This cut-off value must be regarded as a rule of thumb and manual correction was made to account for bright organs like the gall bladder and obvious acquisition errors (e.g., illogical dark spots in the middle of a fluid filled stomach). Subsequently, a 3D image of the traced fluid was rendered and the fluid volume was calculated by adding up the fluid volumes of each slide (multiplying the surface area of the traced region of interest with the slice thickness).
For data set [4] the following is noted: cited from earlier work.
On the set-up of data set [5]: method as in PMID 18991471. Conditions: compared to esomeprazole, pantoprazole and rabeparzole; cited from earlier work.
A short description of data set [6]: Ritonavir plasma concentrations after oral intake of a Norvir tablet, control vs PPI condition (LC-MS/MS). Particulars: for AUC0-480min / Tmax: one Norvir tablet oral, fasted, median (range), n = 4. It is filed as in vivo, human. As for the experimental part: All volunteers provided written informed consent before participating in the trial. Each trial day, the participant came to the radiology department at the University Hospitals Leuven after an overnight fast (at least 12 h). Water was allowed until the night before the trial except for the volume needed to swallow the PPI tablet. For the PPI condition, participants were pre-treated with a once-daily dose of Nexium (just before breakfast) starting two days prior to the trial day. On the morning of the trial, the final Nexium tablet was taken 2 h prior to the arrival time at the hospital, with as little water as possible to swallow the tablet. A daily dose of 40 mg esomeprazole for three days has shown to elevate and sustain the gastric and duodenal pH to values around 7.1 and 7.5, respectively, indicative of the acid-inhibitory effect. A venous catheter was placed in the subject’s arm and a blank blood sample (5 mL) was collected in heparinized tubes (BD Vacutainer systems, Plymouth, UK). […] In addition, subjects were placed in a Philips 1.5 T MRI System (Philips, Best, The Netherlands) to assess the gastric and duodenal fluid volume, once before administration of the study medication and afterwards at predetermined time points, i.e., 20, 40, 60, 90, 120, 150 and 180 min.
Blood samples were stored on ice during the remainder of the study day, before centrifugation at 2880× g, for 10 min at 4 °C (Centrifuge 5804R, Eppendorf, Hamburg, Germany). Plasma was collected and stored at −20 °C pending analysis. For analysis, a liquid-liquid extraction was performed in which 50 µL of plasma was added to 450 µL HBSS and vortexed for a few seconds. Lopinavir was used as internal standard: 100 µL of a 200 nM stock solution in 25% v/v DMSO-water was added to the mixture. Before extraction, the pH was adjusted by adding 500 µL of 40 mM borax buffer (pH = 9), followed by 5 mL of the extraction medium hexane—ethyl acetate (50:50, v/v) and shaken for 1 min. The mixture was centrifugated at 2880× g, for 5 min at 4 °C and the organic layer was transferred to a new test tube and evaporated to dryness under a gentle airflow. The residue was redissolved in 1 mL of methanol and vortexed for 30 s before another evaporation cycle. The resulting residue was reconstituted in 200 µL methanol—water (50:50, v/v) awaiting analysis.
For the analysis, a Waters ACQUITY UHPLC H-Class system consisting of a quaternary pump was used combined with a Waters Xevo TQ-S micro mass spectrometer (Waters, Milford, MA, USA). Separation took place on a Kinetex® column (2.6 µm XB-C18 100 A, 50 × 2.1 mm, Phenomenex, Utrecht, the Netherlands) using isocratic elution with methanol—0.1% formic acid (65:35, v/v) followed by a wash gradient and re-equilibration (Table 2). Column temperature was set at 35 °C and samples were kept in the autosampler at 15 °C. […] Peaks were detected with MS/MS, using electrospray ionization (ESI) as ion source. […] Fragmentation was induced by collision with argon. The system was operated in multi-reaction monitoring (MRM) mode with the mass transitions according to Table 3.

Details of data set [7]: method as in PMID 32461076. Particulars: median; esomeprazole pre-treatment, Norvir tablet; cited from earlier work.
For data set [8] the following is noted: cited from earlier work. This is another data set of the same source.
Setting [9] is: PPI vs control condition, volunteer HV02.
Where [10] appears, read: PPI vs control condition, median, present study.

Like-named read-outs stand apart in the source and are kept apart here. Marks after values point to notes of the source that are not given here.

In data set [1] (PPI condition, after Norvir tablet with 240 mL water, median), `COc1ccc2nc([S@@+]([O-])Cc3ncc(C)c(OC)c3C)[nH]c2c1` [esomeprazole] registered a duodenal fluid volume of 8.6 mL. For the same molecule, the “relative decrease in duodenal AUVC” value in data set [1] (PPI vs control condition, median) is 33%; in data set [1] (PPI vs control condition, median, listed as PPI), 33.3%. Moreover, the “drop in duodenal fluid AUVC” value in data set [1] (setting [9]) came out at 37%. In addition, the “decrease in duodenal fluid volume” value in data set [1] (after PPI treatment, average over all volunteers) was 32%. For the same molecule, in data set [2], the “duodenal pH” value is ~7.5. For the same molecule, the “gastric pH” value in data set [2] was “around 7.1”. For the same molecule, in data set [3] (PPI vs control condition, fasted, prior to ritonavir intake, five volunteers), the “relative decrease in gastric residual volume (GRV)” value is 41%. Also, the “relative decrease in total gastric fluid volume (AUVC)” value in data set [3] (PPI vs control condition) is reported as 44%; in data set [3] (PPI vs control condition, listed as PPI) it was 43.9%. Also, the “gastric residual volume (GRV)” value in data set [3] (following pre-treatment with esomeprazole 40 mg for three days, fasted state, mean ± SD) is recorded as 20 ± 15 mL.

As for `COc1ccc2[nH]c([S+]([O-])Cc3ncc(C)c(OC)c3C)nc2c1` (stereo not drawn) [omeprazole], the “effect on plasma Cmax or AUC of ritonavir” value in data set [4] is “did not report an effect”. For the same molecule, in data set [5], the “effect on the gastric fluid volume compared to other PPIs” value is on record as “less pronounced effect on the gastric fluid volume”.

Usually Cmax stands for the peak of the concentration-time curve. A word on the Log P: it is the decadic logarithm of the partition coefficient of the neutral form, usually between octanol and water. Broadly, the pKa is the pH at which an ionisable group is half protonated. Turning to `CC(C)c1nc(CN(C)C(=O)N[C@H](C(=O)N[C@@H](Cc2ccccc2)C[C@H](O)[C@H](Cc2ccccc2)NC(=O)OCc2cncs2)C(C)C)cs1` [ritonavir], the AUC0-480min in data set [6] (PPI condition (esomeprazole 40 mg once daily for three days)) is 2.5 · 10^5 (1.2 · 10^5–3.2 · 10^5) nmol·min/L; in data set [6] (control condition), 3.8 · 10^5 (2.6 · 10^5–5.9 · 10^5) nmol·min/L. Further, the “PPI-induced decrease in Cmax” value in data set [6] (setting [10]) was 39.0%; in data set [7], 49.6%. Moreover, the delay in tmax was 10% in data set [6] (setting [10]) and 50% in data set [7]. Moreover, the “drop in plasma AUC” value in data set [6] (setting [9]) is on record as 65%. The Tmax was 3.75 h in data set [6] (both sexes, human, plasma, po, 40 mg, PPI condition (esomeprazole 40 mg once daily for three days), read-out: tmax (converted)); 3.22 h in data set [6] (both sexes, human, plasma, po, 100 mg, control condition, read-out: tmax (converted)); 192.5 (175–240) min in data set [6] (control condition). In data set [6] (both sexes, human, plasma, po, 100 mg), this molecule displayed a Cmax of 1.13 µM. The “PPI-induced decrease in AUC0–480min” value in data set [7] was 39.5%. Also, the “Log P” value in data set [8] is on record as 4.3. For the same molecule, in data set [8] (weak base), the pKa is recorded as 2.6.
